Source: publication PMC9286316, “Importance of the Cyclic Cystine Knot Structural Motif for Immunosuppressive Effects of Cyclotides” (ACS Chemical Biology, 2021)

Test system: human PBMCs
Assay: Lymphocyte proliferation assay (CFSE, anti-CD3/anti-CD28 stimulated PBMC, flow cytometry)
Assay type: cell-based
Settings: 72 h; for antiproliferative activity (Figure 2B): tested concentration range 1–100 μg/mL peptide, three biological replicates
Method: Blood of healthy donors was obtained from the Blood Transfusion Centre (University Medical Centre Freiburg, Freiburg Germany), and all experiments conducted on human material were approved by the ethics committee of the University Freiburg (55/14). Venous blood was centrifuged to isolate peripheral blood mononuclear cells on a LymphoPrep gradient (density: 1.077 g/cm^3, 20 min, 500 × g, 20 °C; Progen, Heidelberg, Germany). PBMCs were collected and washed twice with phosphate buffer saline (PBS; GE Healthcare, München), and cell viability and concentration were determined using the trypan blue exclusion test. Cells were cultured in RPMI 1640 medium supplemented with 10% heat-inactivated fetal calf serum, 2 mM L-glutamine, 100 U/mL penicillin, and […] streptomycin (all from Life Technologies, Paisley, UK) and cultured at 37 °C in a humidified incubator with a 5% CO2/95% air atmosphere.
Harvested PBMC were washed twice in cold PBS and resuspended in PBS at a concentration of 5 × 10^6 cells per mL. Carboxyfluorescein diacetate succinimidyl ester (CFSE; 5 μM; Sigma-Aldrich, St. Louis, MO) staining was performed to determine T-cell proliferation. Cells were stained with CFSE and incubated for 10 min at 37 °C. The staining reaction was stopped by washing twice with complete growth medium. Afterward, stained cells were stimulated with anti-human CD3 (clone OKT3) and anti-human CD28 (clone 28.6) mAbs (each 100 ng/mL; both from eBioscience, Frankfurt, Germany) treated as indicated in the figure legends, with medium alone, cyclosporine A (CsA; 5 μg/mL, purity ≥99%, Sandimmun 50 mg/mL, Novartis Pharma, Basel, Switzerland), camptothecin (CPT; 300 μM; purity >98%; Tocris, Bristol, UK), or in the presence of the indicated concentrations of peptides for 72 h at 37 °C in a humidified incubator with a 5% CO2/95% air atmosphere. Cell division progress was analyzed by flow cytometric analysis using a FACS Calibur analyzer (BD Bioscience, Becton Dickinson, Franklin Lakes, NJ). Data were generated using FlowJo software. For further analysis of FACS raw data Microsoft Excel and SPSS software (IBM, Version 22.0, Armonk, USA) were applied. All bioactivity data are represented as mean ± standard deviation (SD) for the indicated number of independent experiments. Statistical significance was determined by a one-way ANOVA followed by Dunnett’s post hoc pairwise comparisons. The asterisks (*p < 0.05, **p < 0.01, ***p < 0.001) represent significant differences from the respective control.

Compound	antiproliferative activity (Figure 2B)	antiproliferative activity (Figure 1D) (tested concentration range up to 10 μM (∼29 μg/mL), mean ± SD of three biological replicates relative to stimulated control)
CSSC[C@@H]1NC(=O)CNC(=O)[C@@H]2CCCN2C(=O)[C@H]([C@@H](C)O)NC(=O)[C@H](CC(N)=O)NC(=O)[C@H](CSSC)NC(=O)[C@H]([C@@H](C)O)NC(=O)CNC(=O)CNC(=O)[C@H](C(C)C)NC(=O)[C@H](CSSC)NC(=O)[C@H]([C@@H](C)O)NC(=O)[C@H](CCC(=O)O)NC(=O)CNC(=O)[C@H](CSSC)NC(=O)[C@H](C(C)C)NC(=O)[C@@H]2CCCN2C(=O)[C@H](CC(C)C)NC(=O)CNC(=O)[C@H](CC(N)=O)NC(=O)[C@H](CCCNC(=N)N)NC(=O)[C@H]([C@@H](C)O)NC(=O)[C@H](CSSC)NC(=O)[C@H](C(C)C)NC(=O)[C@@H]2CCCN2C(=O)[C@H](Cc2c[nH]c3ccccc23)NC(=O)[C@H](CO)NC(=O)[C@H](CSSC)NC(=O)[C@H](CCCCN)NC1=O [T20K-S-methyl]	total loss of antiproliferative activity	
CC(C)C[C@@H]1NC(=O)CNC(=O)[C@H](CC(N)=O)NC(=O)[C@H](CCCNC(=N)N)NC(=O)[C@H]([C@@H](C)O)NC(=O)[C@H](CSCC(N)=O)NC(=O)[C@H](C(C)C)NC(=O)[C@@H]2CCCN2C(=O)[C@H](Cc2c[nH]c3ccccc23)NC(=O)[C@H](CO)NC(=O)[C@H](CSCC(N)=O)NC(=O)[C@H](CCCCN)NC(=O)[C@H](CSCC(N)=O)NC(=O)CNC(=O)[C@@H]2CCCN2C(=O)[C@H]([C@@H](C)O)NC(=O)[C@H](CC(N)=O)NC(=O)[C@H](CSCC(N)=O)NC(=O)[C@H]([C@@H](C)O)NC(=O)CNC(=O)CNC(=O)[C@H](C(C)C)NC(=O)[C@H](CSCC(N)=O)NC(=O)[C@H]([C@@H](C)O)NC(=O)[C@H](CCC(=O)O)NC(=O)CNC(=O)[C@H](CSCC(N)=O)NC(=O)[C@H](C(C)C)NC(=O)[C@@H]2CCCN2C1=O [T20K-Acm]	total loss of antiproliferative activity	
GLPVCGETCVGGTCNTPGCKCSWPVCTR↓N (head to tail) [cyclic reduced T20K]		lost activity
CCN1C(=O)CC(SC[C@@H]2NC(=O)CNC(=O)[C@@H]3CCCN3C(=O)[C@H]([C@@H](C)O)NC(=O)[C@H](CC(N)=O)NC(=O)[C@H](CSC3CC(=O)N(CC)C3=O)NC(=O)[C@H]([C@@H](C)O)NC(=O)CNC(=O)CNC(=O)[C@H](C(C)C)NC(=O)[C@H](CSC3CC(=O)N(CC)C3=O)NC(=O)[C@H]([C@@H](C)O)NC(=O)[C@H](CCC(=O)O)NC(=O)CNC(=O)[C@H](CSC3CC(=O)N(CC)C3=O)NC(=O)[C@H](C(C)C)NC(=O)[C@@H]3CCCN3C(=O)[C@H](CC(C)C)NC(=O)CNC(=O)[C@H](CC(N)=O)NC(=O)[C@H](CCCNC(=N)N)NC(=O)[C@H]([C@@H](C)O)NC(=O)[C@H](CSC3CC(=O)N(CC)C3=O)NC(=O)[C@H](C(C)C)NC(=O)[C@@H]3CCCN3C(=O)[C@H](Cc3c[nH]c4ccccc34)NC(=O)[C@H](CO)NC(=O)[C@H](CSC3CC(=O)N(CC)C3=O)NC(=O)[C@H](CCCCN)NC2=O)C1=O (stereo partly shown) [T20K-Nem]	total loss of antiproliferative activity	
